Test results as given in patent publication US20130217652A1, “SULFINYLBENZYL AND THIOBENZYL DERIVATIVES AS SPHINGOSINE 1-PHOSPHATE (S1P) RECEPTOR MODULATORS” (ALLERGAN, INC., priority 2012, published 2013).

Molecular target: T1, human S1P1 receptor (Homo sapiens, UniProt P21453)
T1 construct: expressed in transfected cells; membranes used
Assay: GTP γ35S binding assay for S1P1 activity
Format: biochemical
Conditions: membranes of cells stably expressing the S1P1 receptor, test compounds 0.08 to 5,000 nM, 30 min at 25° C.
Protocol: Compounds were synthesized and tested for S1P1 activity using the GTP γ^35S binding assay. These compounds may be assessed for their ability to activate or block activation of the human S1P1 receptor in cells stably expressing the S1P1 receptor.
GTP γ^35S binding was measured in the medium containing (mM) HEPES 25, pH 7.4, MgCl2 10, NaCl 100, dithitothreitol 0.5, digitonin 0.003%, 0.2 nM GTP γ^35S, and 5 μg membrane protein in a volume of 150 μl. Test compounds were included in the concentration range from 0.08 to 5,000 nM unless indicated otherwise. Membranes were incubated with 100 μM 5′-adenylylimmidodiphosphate for 30 min, and subsequently with 10 μM GDP for 10 min on ice. Drug solutions and membrane were mixed, and then reactions were initiated by adding GTP γ^35S and continued for 30 min at 25° C. Reaction mixtures were filtered over Whatman GF/B filters under vacuum, and washed three times with 3 mL of ice-cold buffer (HEPES 25, pH 7.4, MgCl2 10 and NaCl 100). Filters were dried and mixed with scintillant, and counted for ^35S activity using a β-counter. Agonist-induced GTP γ^35S binding was obtained by subtracting that in the absence of agonist. Binding data were analyzed using a non-linear regression method. In case of antagonist assay, the reaction mixture contained 10 nM S1P in the presence of test antagonist at concentrations ranging from 0.08 to 5000 nM. […] Activity potency: S1P1 receptor from GTP γ^35S: nM, (EC50),

T1 sequence (P21453 whole entry): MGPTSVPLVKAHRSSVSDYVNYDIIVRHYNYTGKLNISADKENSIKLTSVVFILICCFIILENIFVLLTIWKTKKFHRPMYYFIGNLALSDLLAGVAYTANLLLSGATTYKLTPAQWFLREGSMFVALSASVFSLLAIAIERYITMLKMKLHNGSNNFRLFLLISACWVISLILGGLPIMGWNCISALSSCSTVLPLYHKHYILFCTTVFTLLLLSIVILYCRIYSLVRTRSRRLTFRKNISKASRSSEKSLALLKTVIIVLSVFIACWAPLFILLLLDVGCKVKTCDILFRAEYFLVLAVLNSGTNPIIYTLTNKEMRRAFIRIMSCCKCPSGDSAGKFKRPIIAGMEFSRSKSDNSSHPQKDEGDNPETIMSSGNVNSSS

Row | Structure (SMILES) | EC50 [µM]
1 | Cc1ccc(CC(CCC[S+]([O-])c2ccc(CNCCC(=O)O)cc2)c2cccc(Cl)c2)cc1C (centres unmarked) [Compound 3, 3-[(4-{[4-(3-chlorophenyl)-5-(3,4-dimethylphenyl)pentyl]sulfinyl}benzyl)amino]propanoic acid] | 0.0817
2 | Cc1ccc(CC(CCCC[S+]([O-])c2ccc(CNCCC(=O)O)cc2)c2cccc(Cl)c2)cc1C (centres unmarked) [Compound 2, 3-[(4-{[5-(3-chlorophenyl)-6-(3,4-dimethylphenyl)hexyl]sulfinyl}benzyl)amino]propanoic acid] | 0.631

More lines, now with the values ahead:

Row | EC50 [µM] | Structure (SMILES)
3 | 0.159 | Cc1ccc(CC(CCCCSc2ccc(CNCCC(=O)O)cc2)c2cccc(Cl)c2)cc1C (centres unmarked) [Compound 1, 3-[(4-{[5-(3-chlorophenyl)-6-(3,4-dimethylphenyl)hexyl]thio}benzyl)amino]propanoic acid]
4 | 0.00076 | Cc1ccc(CC(CCCSc2ccc(CNCCCP(=O)(O)O)cc2)c2cccc(Cl)c2)cc1C (centres unmarked) [Compound 6, {3-[(4-{[4-(3-chlorophenyl)-5-(3,4-dimethylphenyl)pentyl]thio}benzyl)amino]propyl}phosphonic acid]
5 | 0.00265 | Cc1ccc(CC(CCCSc2ccc(CNCCCP(=O)(O)O)cc2)c2cc(F)cc(F)c2)cc1C (centres unmarked) [Compound 5, {3-[(4-{[4-(3,5-difluorophenyl)-5-(3,4-dimethylphenyl)pentyl]thio}benzyl)amino]propyl}phosphonic acid]
